For two molecules, residual kinase activity results are on record in publication PMC11167047 (Cell Death Discovery, 2024).

Assay in all cases: kinome screen (33PanQinase)
Common to all, as to type: biochemical

In one assay the target is T1, CDK16/CycY (Homo sapiens, UniProt Q00536).
T1 construct: purchased Reaction Biology Europe GmbH (formerly ProQinase)
As to the method: (§1) The Kinome Screening was performed by Reaction Biology Europe GmbH (http://reactionbiology.com; Freiburg i. Br., Germany).

For another assay, the target named is T2, TNK1 (Homo sapiens, UniProt Q13470).
T2 construct: purchased Reaction Biology Europe GmbH (formerly ProQinase)
T2 sequence (Q13470 1-666): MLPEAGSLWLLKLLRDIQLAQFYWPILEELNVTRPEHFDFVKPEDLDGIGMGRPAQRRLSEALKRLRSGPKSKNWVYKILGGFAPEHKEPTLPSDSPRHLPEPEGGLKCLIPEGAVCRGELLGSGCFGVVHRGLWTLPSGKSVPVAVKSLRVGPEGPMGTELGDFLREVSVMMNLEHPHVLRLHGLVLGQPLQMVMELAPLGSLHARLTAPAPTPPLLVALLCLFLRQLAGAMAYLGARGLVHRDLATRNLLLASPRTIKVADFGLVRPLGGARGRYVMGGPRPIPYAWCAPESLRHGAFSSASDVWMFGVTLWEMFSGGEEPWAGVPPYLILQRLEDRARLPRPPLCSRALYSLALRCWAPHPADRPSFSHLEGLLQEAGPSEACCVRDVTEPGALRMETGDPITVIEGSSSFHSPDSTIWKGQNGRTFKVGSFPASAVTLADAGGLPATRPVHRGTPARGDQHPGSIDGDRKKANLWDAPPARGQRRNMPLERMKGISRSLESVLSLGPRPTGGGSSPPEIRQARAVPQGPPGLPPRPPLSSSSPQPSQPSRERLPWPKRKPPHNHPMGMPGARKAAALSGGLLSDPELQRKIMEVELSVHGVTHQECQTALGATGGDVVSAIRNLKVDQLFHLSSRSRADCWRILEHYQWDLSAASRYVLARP
The protocol: as §1

The target of another assay is T3, PKA (Homo sapiens, UniProt P17612).
T3 construct: purchased Reaction Biology Europe GmbH (formerly ProQinase)
As to the method: as §1

Another assay has as its target T4, CDK3/CycE1 (Homo sapiens, UniProt Q00526).
T4 construct: purchased Reaction Biology Europe GmbH (formerly ProQinase)
The protocol:
as §1

The next assay deals with T5, NEK11 (Homo sapiens, UniProt Q8NG66).
T5 construct: purchased Reaction Biology Europe GmbH (formerly ProQinase)
T5 sequence (Q8NG66 1-645): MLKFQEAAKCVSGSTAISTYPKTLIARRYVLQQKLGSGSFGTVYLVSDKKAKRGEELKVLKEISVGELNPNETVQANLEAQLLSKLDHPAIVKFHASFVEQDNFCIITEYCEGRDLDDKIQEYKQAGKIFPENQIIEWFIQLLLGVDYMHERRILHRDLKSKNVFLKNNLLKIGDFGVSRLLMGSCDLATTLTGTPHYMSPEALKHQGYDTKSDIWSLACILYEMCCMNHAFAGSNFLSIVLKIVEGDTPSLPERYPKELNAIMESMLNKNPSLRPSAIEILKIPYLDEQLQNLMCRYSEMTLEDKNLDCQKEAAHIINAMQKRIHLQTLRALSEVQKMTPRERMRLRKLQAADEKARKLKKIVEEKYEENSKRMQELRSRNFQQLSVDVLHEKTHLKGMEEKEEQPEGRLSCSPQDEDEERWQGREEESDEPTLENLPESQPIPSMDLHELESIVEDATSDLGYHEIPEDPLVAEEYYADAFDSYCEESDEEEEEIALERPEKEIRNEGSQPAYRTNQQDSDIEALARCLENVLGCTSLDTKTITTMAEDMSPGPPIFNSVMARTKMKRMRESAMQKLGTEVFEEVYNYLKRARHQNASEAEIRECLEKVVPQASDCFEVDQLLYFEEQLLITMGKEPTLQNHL
As to the method: as §1

The target of the next assay is T6, CK1Δ (Homo sapiens, UniProt P48730).
T6 construct: purchased Reaction Biology Europe GmbH (formerly ProQinase)
The protocol:
as §1

The target in the next assay is T7, ULK2 (Homo sapiens, UniProt Q8IYT8).
T7 construct: purchased Reaction Biology Europe GmbH (formerly ProQinase)
T7 sequence (Q8IYT8 1-1036): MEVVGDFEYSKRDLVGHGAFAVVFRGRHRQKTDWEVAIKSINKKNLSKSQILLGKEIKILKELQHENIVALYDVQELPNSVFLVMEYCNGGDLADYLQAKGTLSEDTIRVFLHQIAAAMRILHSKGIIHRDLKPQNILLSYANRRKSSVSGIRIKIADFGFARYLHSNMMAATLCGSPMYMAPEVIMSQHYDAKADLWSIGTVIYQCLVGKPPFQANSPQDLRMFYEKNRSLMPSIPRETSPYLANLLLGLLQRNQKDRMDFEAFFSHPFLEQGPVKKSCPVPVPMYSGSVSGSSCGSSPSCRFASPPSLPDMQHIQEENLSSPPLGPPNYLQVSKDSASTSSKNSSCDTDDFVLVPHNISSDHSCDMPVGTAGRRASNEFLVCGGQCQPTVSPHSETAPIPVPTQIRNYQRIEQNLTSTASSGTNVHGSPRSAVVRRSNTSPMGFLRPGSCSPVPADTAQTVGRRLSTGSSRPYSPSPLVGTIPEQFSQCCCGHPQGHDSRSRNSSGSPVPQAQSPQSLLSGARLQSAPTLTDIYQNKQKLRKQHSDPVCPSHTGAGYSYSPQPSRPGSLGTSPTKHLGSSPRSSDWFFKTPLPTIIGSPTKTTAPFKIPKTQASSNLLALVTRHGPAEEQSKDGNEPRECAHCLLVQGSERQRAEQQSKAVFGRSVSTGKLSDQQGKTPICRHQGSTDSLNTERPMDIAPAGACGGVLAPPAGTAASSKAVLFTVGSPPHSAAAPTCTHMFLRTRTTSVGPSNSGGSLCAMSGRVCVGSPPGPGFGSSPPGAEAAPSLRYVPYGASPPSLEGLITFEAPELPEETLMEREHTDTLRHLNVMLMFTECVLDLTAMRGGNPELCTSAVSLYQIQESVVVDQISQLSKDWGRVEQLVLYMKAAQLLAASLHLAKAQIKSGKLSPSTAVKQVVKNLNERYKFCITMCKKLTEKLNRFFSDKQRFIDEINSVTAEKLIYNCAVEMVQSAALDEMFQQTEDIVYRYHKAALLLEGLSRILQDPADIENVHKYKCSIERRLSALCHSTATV
The protocol:
as §1

Another assay has as its target T8, EIF2AK2 (Homo sapiens, UniProt P19525).
T8 construct: purchased Reaction Biology Europe GmbH (formerly ProQinase)
The protocol: as §1

T8 sequence (P19525 whole entry): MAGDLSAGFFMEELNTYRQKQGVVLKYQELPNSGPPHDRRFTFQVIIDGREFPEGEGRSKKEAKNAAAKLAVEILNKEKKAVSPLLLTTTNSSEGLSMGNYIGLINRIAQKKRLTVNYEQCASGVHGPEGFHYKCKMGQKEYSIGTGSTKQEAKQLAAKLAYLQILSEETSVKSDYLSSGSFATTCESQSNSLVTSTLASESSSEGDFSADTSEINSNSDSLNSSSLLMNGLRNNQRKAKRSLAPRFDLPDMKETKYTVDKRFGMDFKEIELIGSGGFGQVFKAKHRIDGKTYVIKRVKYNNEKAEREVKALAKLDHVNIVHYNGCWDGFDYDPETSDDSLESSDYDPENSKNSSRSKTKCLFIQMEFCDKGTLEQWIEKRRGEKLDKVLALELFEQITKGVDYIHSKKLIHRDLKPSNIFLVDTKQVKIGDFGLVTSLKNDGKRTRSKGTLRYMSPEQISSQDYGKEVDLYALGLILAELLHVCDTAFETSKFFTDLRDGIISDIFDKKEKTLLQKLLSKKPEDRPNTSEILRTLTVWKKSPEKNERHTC
T6 sequence (P48730 whole entry, stated change not applied): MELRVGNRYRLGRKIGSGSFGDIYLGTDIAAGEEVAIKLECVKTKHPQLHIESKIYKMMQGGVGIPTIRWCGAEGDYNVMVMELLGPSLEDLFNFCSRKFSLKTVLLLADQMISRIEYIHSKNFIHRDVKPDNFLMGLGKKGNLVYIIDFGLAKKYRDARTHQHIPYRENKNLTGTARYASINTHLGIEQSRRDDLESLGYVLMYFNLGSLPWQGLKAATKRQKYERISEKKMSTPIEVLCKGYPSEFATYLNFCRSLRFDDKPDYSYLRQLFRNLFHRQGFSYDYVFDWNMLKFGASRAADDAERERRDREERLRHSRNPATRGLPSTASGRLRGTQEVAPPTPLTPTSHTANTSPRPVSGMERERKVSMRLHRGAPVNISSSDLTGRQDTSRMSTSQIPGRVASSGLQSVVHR
T4 sequence (Q00526 whole entry): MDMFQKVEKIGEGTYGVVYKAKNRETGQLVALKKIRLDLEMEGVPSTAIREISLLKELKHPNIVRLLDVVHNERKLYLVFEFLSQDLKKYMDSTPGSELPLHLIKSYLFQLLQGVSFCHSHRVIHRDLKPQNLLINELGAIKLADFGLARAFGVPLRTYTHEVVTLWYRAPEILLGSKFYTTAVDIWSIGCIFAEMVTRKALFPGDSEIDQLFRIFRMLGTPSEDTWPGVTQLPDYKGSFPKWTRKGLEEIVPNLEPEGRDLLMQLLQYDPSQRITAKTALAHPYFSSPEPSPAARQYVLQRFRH
T4 sequence (P24864 whole entry partner): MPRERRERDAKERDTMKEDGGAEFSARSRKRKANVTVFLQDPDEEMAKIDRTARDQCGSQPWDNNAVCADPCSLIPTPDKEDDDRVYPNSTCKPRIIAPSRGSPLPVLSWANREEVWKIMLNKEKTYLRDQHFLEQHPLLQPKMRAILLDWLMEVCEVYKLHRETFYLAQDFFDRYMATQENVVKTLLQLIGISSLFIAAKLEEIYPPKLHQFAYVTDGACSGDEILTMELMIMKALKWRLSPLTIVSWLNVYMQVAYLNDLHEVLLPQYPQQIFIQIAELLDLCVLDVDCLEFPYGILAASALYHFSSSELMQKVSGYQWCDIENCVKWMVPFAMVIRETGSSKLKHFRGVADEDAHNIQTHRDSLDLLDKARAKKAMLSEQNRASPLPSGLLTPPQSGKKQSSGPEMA
T1 sequence (Q00536 whole entry): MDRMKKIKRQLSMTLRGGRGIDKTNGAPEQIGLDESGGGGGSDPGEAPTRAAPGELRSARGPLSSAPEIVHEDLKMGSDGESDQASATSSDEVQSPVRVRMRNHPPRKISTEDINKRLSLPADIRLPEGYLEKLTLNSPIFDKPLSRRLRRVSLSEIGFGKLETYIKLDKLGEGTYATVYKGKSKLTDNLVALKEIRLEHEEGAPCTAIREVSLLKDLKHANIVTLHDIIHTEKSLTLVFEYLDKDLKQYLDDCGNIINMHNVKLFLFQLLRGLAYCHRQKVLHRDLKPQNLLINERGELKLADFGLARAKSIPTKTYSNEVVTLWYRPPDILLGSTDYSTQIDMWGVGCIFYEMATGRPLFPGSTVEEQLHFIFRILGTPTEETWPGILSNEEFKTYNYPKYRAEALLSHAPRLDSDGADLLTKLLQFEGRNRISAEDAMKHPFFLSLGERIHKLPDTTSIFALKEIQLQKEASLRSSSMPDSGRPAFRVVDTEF
T1 sequence (Q8ND76 whole entry partner): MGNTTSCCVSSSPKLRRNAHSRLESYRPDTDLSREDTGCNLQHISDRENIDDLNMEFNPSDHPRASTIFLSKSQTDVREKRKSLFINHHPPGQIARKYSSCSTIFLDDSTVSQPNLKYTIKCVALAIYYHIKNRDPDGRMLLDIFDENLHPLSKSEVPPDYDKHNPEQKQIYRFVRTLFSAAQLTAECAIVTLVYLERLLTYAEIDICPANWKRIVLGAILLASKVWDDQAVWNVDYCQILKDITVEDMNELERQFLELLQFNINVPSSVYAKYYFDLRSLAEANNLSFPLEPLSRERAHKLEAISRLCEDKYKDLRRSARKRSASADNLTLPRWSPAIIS

`COc1ccnc2[nH]cc(-c3cc(N)nc(N)c3)c12` [meriolin 16]: the residual kinase activity at CDK16/CycY (0.03 µM) was 64 % of control; on CDK16/CycY (0.3 µM) it was 16 % of control; at TNK1 (0.03 µM) it was 82 % of control; at TNK1 (0.3 µM), 39 % of control; on PKA (0.03 µM), 75 % of control; on PKA (0.3 µM), 43 % of control. The residual kinase activity is 36 % of control at CDK3/CycE1 (0.03 µM); 5 % of control at CDK3/CycE1 (0.3 µM); 97 % of control on NEK11 (0.03 µM); 87 % of control at NEK11 (0.3 µM); 77 % of control at CK1Δ (0.03 µM); 17 % of control on CK1Δ (0.3 µM). Besides, the residual kinase activity is on record as 96 % of control on ULK2 (0.03 µM), 54 % of control at ULK2 (0.3 µM), 83 % of control at EIF2AK2 (0.03 µM) and 95 % of control on EIF2AK2 (0.3 µM).

On to `c1ccc(CNc2cc(-c3c[nH]c4ncccc34)ccn2)cc1` [meriolin 36], for which the residual kinase activity is 17 % of control at CDK16/CycY (0.3 µM); 3 % of control on CDK16/CycY (3 µM); 29 % of control at TNK1 (0.3 µM); 9 % of control on TNK1 (3 µM); 12 % of control at PKA (0.3 µM); 2 % of control on PKA (3 µM). In addition, the residual kinase activity at CDK3/CycE1 (0.3 µM) is listed as 1 % of control; on CDK3/CycE1 (3 µM), -1 % of control; on NEK11 (0.3 µM), 105 % of control; at NEK11 (3 µM) it was 85 % of control; on CK1Δ (0.3 µM) it was 43 % of control; on CK1Δ (3 µM), 9 % of control. In addition, the residual kinase activity on ULK2 (0.3 µM) is given as 82 % of control; on ULK2 (3 µM) it was 45 % of control; at EIF2AK2 (0.3 µM), 79 % of control; at EIF2AK2 (3 µM), 63 % of control.
